# According to patent US11414424B2, “Cardiac sarcomere inhibitors” (Cytokinetics, Inc., priority 2018, dated 2022):
# Tested on: bovine cardiac myofibrils
# Experiment: Myofibril assay: PK/LDH-coupled steady-state ATPase activity of skinned bovine cardiac myofibrils
# Type: biochemical
# Conditions: Ca2+ activating to 75% of maximal rate
# Procedure, shortened: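 Steady-state ATPase of detergent-skinned bovine left-ventricular myofibrils (1 mg/mL), PK/LDH-coupled NADH read at 340 nm, in PIPES/MgCl2 buffer pH 6.8 with 50 μM ATP, 0.6 mM EGTA and CaCl2 set for 50% or 75% activation. Inhibition of activity measured.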
row,SMILES,CDMF75 IC15
1,"CC(=O)N1CC2(C1)C(=O)N(c1ccc(Cl)cc1F)CC(=O)N2[C@@H](C)c1ccc(C(F)(F)F)cc1 [Compound 340, (S)-2-acetyl-8-(4-chloro-2-fluorophenyl)-5-(1-(4-(trifluoromethyl)phenyl)-ethyl)-2,5,8-triazaspiro-[3.5]nonane-6,9-dione]",0.7 µM
2,"CC(=O)N1CC2(C1)C(=O)N(c1ccc(Cl)cc1F)C(C)C(=O)N2Cc1ccc(C(F)(F)F)cc1 (stereo not shown) [Compound 341, 2-acetyl-8-(4-chloro-2-fluorophenyl)-7-methyl-5-(4-(trifluoromethyl)benzyl)-2,5,8-triazaspiro[3.5]nonane-6,9-dione]",5.4 µM
3,"COCC1C(=O)N(Cc2ccc(Cl)cc2)C2(CN(c3ccc(C#N)cn3)C2)C(=O)N1C(C)C (stereo not shown) [Compound 347, 6-(5-(4-chlorobenzyl)-8-isopropyl-7-(methoxymethyl)-6,9-dioxo-2,5,8-triazaspiro[3.5]nonan-2-yl)nicotinonitrile]",26.4 µM
4,"N#Cc1ccc(N2CCC3(C2)C(=O)N(c2ccc([N+](=O)[O-])cc2)CC(=O)N3Cc2ccc(Cl)cc2)nc1 (stereo not shown) [Compound 348, 6-(6-(4-chlorobenzyl)-9-(4-nitrophenyl)-7,10-dioxo-2,6,9-triazaspiro[4.5]decan-2-yl)nicotinonitrile]",0.7 µM
5,"CNC(=O)N1CCC2(C1)C(=O)N(c1ccc([N+](=O)[O-])cc1)CC(=O)N2Cc1ccc(Cl)cc1 (stereo not shown) [Compound 349, 6-(4-chlorobenzyl)-N-methyl-9-(4-nitrophenyl)-7,10-dioxo-2,6,9-triazaspiro[4.5]decane-2-carboxamide]",0.9 µM
6,"N#Cc1ccc(N2CC3(C2)C(=O)N(c2ccccc2)CC(=O)N3Cc2ccc(C(F)(F)F)cc2)nc1 [Compound 350, 6-(6,9-dioxo-8-phenyl-5-(4-(trifluoromethyl)benzyl)-2,5,8-triazaspiro[3.5]nonan-2-yl)nicotinonitrile]",5.5 µM
7,"CC(C)NC(=O)N1CCC2(C1)C(=O)N(C(C)C)CC(=O)N2Cc1ccc(Cl)cc1 (stereo not shown) [Compound 383, 6-(4-chlorobenzyl)-N,9-diisopropyl-7,10-dioxo-2,6,9-triazaspiro[4.5]-decane-2-carboxamide]",>39 µM
8,"CC(C)N1CC(=O)N(Cc2ccc(Cl)cc2)C2(CCN(C(=O)Nc3ccccn3)C2)C1=O (stereo not shown) [Compound 385, 6-(4-chlorobenzyl)-9-isopropyl-7,10-dioxo-N-(pyridin-2-yl)-2,6,9-triazaspiro[4.5]decane-2-carboxamide]",>39 µM
9,"COCCNC(=O)N1CCC2(C1)C(=O)N(C(C)C)CC(=O)N2Cc1ccc(Cl)cc1 (stereo not shown) [Compound 387, 6-(4-chlorobenzyl)-9-isopropyl-N-(2-methoxy-ethyl)-7,10-dioxo-2,6,9-triazaspiro[4.5]decane-2-carboxamide]",>39 µM
10,CC(C)(C)OC(=O)[C@H]1C[C@]2(C1)C(=O)N(c1ccc(C#N)cc1F)CC(=O)N2Cc1ccc(C(F)(F)F)cc1 [Compound 429B],0.2 µM
11,Cc1noc([C@H]2C[C@]3(C2)C(=O)N(c2ccc(C#N)cc2F)CC(=O)N3Cc2ccc(C(F)(F)F)cc2)n1 [Compound 432B],0.5 µM
12,Cc1cnc(C2CC3(C2)C(=O)N(c2ccc(C#N)cc2F)CC(=O)N3Cc2ccc(C(F)(F)F)cc2)o1 (stereo not shown) [Compound 436B],0.3 µM
13,Cc1coc([C@H]2C[C@]3(C2)C(=O)N(c2ccc(C#N)cc2F)CC(=O)N3Cc2ccc(C(F)(F)F)cc2)n1 [Compound 442B],0.4 µM
14,N#Cc1ccc(N2CC(=O)N(Cc3ccc(C(F)(F)F)cc3)[C@]3(C[C@H](C(=O)N4CCOCC4)C3)C2=O)c(F)c1 [Compound 444B],0.2 µM
15,N#Cc1ccc(N2CC(=O)N(Cc3ccc(C(F)(F)F)cc3)[C@]3(C[C@H](c4nnc(C(F)F)o4)C3)C2=O)c(F)c1 [Compound 454B],0.1 µM
16,"N#Cc1ccc(N2CC(=O)N(Cc3ccc(C(F)(F)F)cc3)[C@]3(C[C@H](C(=O)NC4CC4)C3)C2=O)c(F)c1 [Compound 459, (2r,4r)-8-(4-cyano-2-fluoro-phenyl)-N-cyclopropyl-6,9-dioxo-5-(4-(trifluoromethyl)benzyl)-5,8-diazaspiro[3.5]nonane-2-carboxamide]",4.5 µM
17,CNC(=O)N[C@H]1C[C@]2(C1)C(=O)N(c1ccc(C#N)cc1F)CC(=O)N2Cc1ccc(C(F)(F)F)cc1 [Compound 463B],0.4 µM

row,SMILES,CDMF75 IC15
1,N#Cc1ccc(N2CC(=O)N(Cc3ccc(C(F)(F)F)cc3)[C@]3(C[C@H](CO)C3)C2=O)c(F)c1 [Compound 475B],0.6 µM
2,CC(C)(O)C1CC2(C1)C(=O)N(c1ccc(C#N)cc1F)CC(=O)N2Cc1ccc(C(F)(F)F)cc1 (stereo not shown) [Compound 479B],2.8 µM
3,CNC(=O)[C@H]1C[C@]2(C1)C(=O)N(c1ccc(C#N)cc1F)CC(=O)N2Cc1ccc(C(F)(F)F)cc1 [Compound 486B],0.7 µM
4,CNC(=O)[C@H]1C[C@]2(C1)C(=O)N(C(C)C)CC(=O)N2Cc1ccc(C(F)(F)F)cc1 [Compound 498B],29.8 µM
5,"CC(=O)N1CC2(C1)C(=O)N(c1ncc(Cl)cc1F)CC(=O)N2Cc1ccc(C(F)(F)F)cc1 [Compound 528, 2-acetyl-8-(5-chloro-3-fluoropyridin-2-yl)-5-(4-(trifluoromethyl)benzyl)-2,5,8-triazaspiro[3.5]nonane-6,9-dione]",2.9 µM
6,"CC(=O)N1CC2(C1)C(=O)N(c1ncc(C#N)cc1C)CC(=O)N2Cc1ccc(C(F)(F)F)cc1 [Compound 529, 6-(2-acetyl-6,9-dioxo-5-(4-(trifluoromethyl)benzyl)-2,5,8-triazaspiro[3.5]nonan-8-yl)-5-methylnicotinonitrile]",5.5 µM
7,"CC(=O)N1CC2(C1)C(=O)N(c1ncc(C#N)cc1F)CC(=O)N2Cc1ccc(C(F)(F)F)cc1 [Compound 530, 6-(2-acetyl-6,9-dioxo-5-(4-(trifluoromethyl)benzyl)-2,5,8-triazaspiro[3.5]nonan-8-yl)-5-fluoronicotinonitrile]",4.7 µM
8,"CNc1ccccc1C(=O)N1CC2(C1)C(=O)N(c1ccc(C#N)cc1F)CC(=O)N2Cc1ccc(C(F)(F)F)cc1 [Compound 531, 3-fluoro-4-(2-(2-(methylamino)benzoyl)-6,9-dioxo-5-(4-(trifluoromethyl)benzyl)-2,5,8-triazaspiro[3.5]nonan-8-yl)benzonitrile]",5.0 µM
9,"COC(=O)c1ccccc1N1CC2(C1)C(=O)N(c1ccc(C#N)cc1F)CC(=O)N2Cc1ccc(C(F)(F)F)cc1 [Compound 532, methyl 2-(8-(4-cyano-2-fluorophenyl)-6,9-dioxo-5-(4-(trifluoromethyl)benzyl)-2,5,8-triazaspiro[3.5]nonan-2-yl)benzoate]",0.2 µM
10,"COC(=O)c1cccc(N2CC3(C2)C(=O)N(c2ccc(C#N)cc2F)CC(=O)N3Cc2ccc(C(F)(F)F)cc2)c1 [Compound 533, methyl 3-(8-(4-cyano-2-fluorophenyl)-6,9-dioxo-5-(4-(trifluoromethyl)benzyl)-2,5,8-triazaspiro[3.5]nonan-2-yl)benzoate]",0.3 µM
11,"COC(=O)c1ccc(N2CC3(C2)C(=O)N(c2ccc(C#N)cc2F)CC(=O)N3Cc2ccc(C(F)(F)F)cc2)cc1 [Compound 534, methyl 4-(8-(4-cyano-2-fluorophenyl)-6,9-dioxo-5-(4-(trifluoromethyl)benzyl)-2,5,8-triazaspiro[3.5]nonan-2-yl)benzoate]",0.2 µM
12,"CNc1ccccc1N1CC2(C1)C(=O)N(c1ccc(C#N)cc1F)CC(=O)N2Cc1ccc(C(F)(F)F)cc1 [Compound 535, 3-fluoro-4-(2-(2-(methyl-amino)phenyl)-6,9-dioxo-5-(4-(trifluoromethyl)-benzyl)-2,5,8-triazaspiro-[3.5]nonan-8-yl)benzonitrile]",0.3 µM
13,"CNc1cccc(N2CC3(C2)C(=O)N(c2ccc(C#N)cc2F)CC(=O)N3Cc2ccc(C(F)(F)F)cc2)c1 [Compound 536, 3-fluoro-4-[2-[3-(methylamino)phenyl]-6,9-dioxo-5-[[4-(trifluoromethyl)phenyl]methyl]-2,5,8-triazaspiro[3.5]nonan-8-yl]benzonitrile]",0.2 µM
14,"CNC(=O)c1ccccc1N1CC2(C1)C(=O)N(c1ccc(C#N)cc1F)CC(=O)N2Cc1ccc(C(F)(F)F)cc1 [Compound 537, 2-(8-(4-cyano-2-fluorophenyl)-6,9-dioxo-5-(4-(trifluoromethyl)benzyl)-2,5,8-triazaspiro[3.5]nonan-2-yl)-N-methylbenzamide]",0.3 µM
15,"CNc1ccc(N2CC3(C2)C(=O)N(c2ccc(C#N)cc2F)CC(=O)N3Cc2ccc(C(F)(F)F)cc2)cc1 [Compound 538, 3-fluoro-4-(2-(4-(methylamino)phenyl)-6,9-dioxo-5-(4-(trifluoromethyl)benzyl)-2,5,8-triazaspiro[3.5]nonan-8-yl)benzonitrile]",0.2 µM
16,"CNC(=O)c1cccc(N2CC3(C2)C(=O)N(c2ccc(C#N)cc2F)CC(=O)N3Cc2ccc(C(F)(F)F)cc2)c1 [Compound 539, 3-(8-(4-cyano-2-fluorophenyl)-6,9-dioxo-5-(4-(trifluoromethyl)benzyl)-2,5,8-triazaspiro[3.5]nonan-2-yl)-N-methylbenzamide]",0.2 µM
17,"CNC(=O)c1ccc(N2CC3(C2)C(=O)N(c2ccc(C#N)cc2F)CC(=O)N3Cc2ccc(C(F)(F)F)cc2)cc1 [Compound 540, 4-(8-(4-cyano-2-fluorophenyl)-6,9-dioxo-5-(4-(trifluoromethyl)benzyl)-2,5,8-triazaspiro[3.5]nonan-2-yl)-N-methylbenzamide]",0.2 µM
